# Measured values from US7658916B2, “Methods of enhancing lysosomal storage disease therapy by modulation of cell surface receptor density” (Genzyme Corporation, priority 2002, dated 2010).
# Like-named read-outs stand apart in the source and are kept apart here.
# B1: mouse interferon-gamma: mouse interferon-γ, species-specific down-regulator of mannose receptor expression on macrophage cells (protein, UniProt P01580 23-155, looked up)
# Interferon gamma: HGTVIESLESLNNYFNSSGIDVEEKSLFLDIWRNWQKDGDMKILQSQIISFYLRLFEVLKDNQAISNNISVIESHLITTFFSNSKAKKDAFMSIAKFEVNNPQVQRQAFNELIRVVHQLLPESSLRKRKRSRC
# B2: interferon-gamma: cytokine that down-regulates mannose receptors and asialoglycoprotein receptors (protein, UniProt P01579 24-161, looked up)
# Interferon gamma: QDPYVKEAENLKKYFNAGHSDVADNGTLFLGILKNWKEESDRKIMQSQIVSFYFKLFKNFKDDQSIQKSVETIKEDMNVKFFNSNKKKRDDFEKLTNYSVTDLNVQRKAIHELIQVMAELSPAAKTGKRKRSQMLFRG
# B3: interleukin-4: cytokine shown to enhance mannose receptor cell surface expression on macrophages (protein, UniProt P05112 25-153, looked up)
# Interleukin-4: HKCDITLQEIIKTLNSLTEQKTLCTELTVTDIFAASKNTTEKETFCRAATVLRQFYSHHEKDTRCLGATAQQFHRHKQLIRFLKRLDRNLWGLAGLNSCPVKEANQSTLENFLERLKTIMREKYSKCSS
# Key:
# [1] = system: L6 myotubes; assay: Alpha-galactosidase uptake by L6 myotubes in vitro; type: cell-based, rat; details: 5 mM M6P; to the endogenous level
# Experimental: Muscles are the major target tissues for enzyme replacement therapy of Pompe disease due to the lack of acid alpha-glucosidase. To determine if the M6P/IGF-II receptor-mediated lysosomal enzyme uptake pathway can be augmented by insulin/glucose, the effects of insulin/glucose were analyzed on induced muscle cells (myotubes) in vitro. L6 myoblasts (or induced myotubes) and Hep3B cells were cultured in 6-well dishes. Rat L6 myoblasts (ATCC# CRL-1458) were cultured at 37° C. under 5% CO2 in VitaCell DMEM media (ATCC# 30-2002) with 4 mM L-glutamine, 10% fetal bovine serum (Gibco #16000-044) and 1× penicillin/streptomycin. Once confluent, cells were switched to VitaCell DMEM plus 2% horse sera (Gibco# 26050-088) and 1× penicillin/streptomycin. Media were changed every 3 days and at day 9-10, myotubes could be observed as multinuclear tubes. About 30-40% of the myoblasts formed myotubes. Cells were used for uptake assay at day 10. Hep3B cells were grown in MEM-eagle (Gibco# 11960-044) with 10% FBS, 1×NEAA, 1× sodium pyruvate and 1× penicillin/streptomycin.
# Before the uptake assay, the cells were washed once with PBS and once with DMEM minus glucose media (Gibco#11966-025), then the cells were starved in 1.5 ml of DMEM minus glucose media for 1 hour at 37° C. […]
# [2] = system: rat alveolar macrophage cell line NR 8383; assay: CEREZYME enzyme uptake by rat alveolar macrophage cells in vitro; type: cell-based
# Experimental: (§1) The rat alveolar macrophage cell line NR 8383 (ATCC# CRL-2192) were cultured in Kaighn's modified F12K nutrient mixture (Gibco# 21127-002) with 2 mM L-glutamine (Gibco# 25030-081), 15% heat-inactivated fetal bovine serum (FBS) (Gibco# 16000-044) and 1× penicillin/streptomycin. Most of the cells were attached to the dish, with some in suspension. Hep3B cells were grown in MEM-eagle (Gibco# 11960-044) with Earles salts and 10% FBS, 1× non-essential amino acid (NEAA), 1× sodium pyruvate and 1× penicillin/streptomycin. Human liver sinusoidal endothelial cells (LSECS) (ACBRI#-566) were purchased from Applied Cell Biology Research Institute through Cell Systems, Inc. Cells were cultured in CS-C Media (CSC# 4Z0-500) with additional 10% FBS. During passage, the culture dishes or flasks were treated with attachment factor solution (CSC# 4Z0-210). Prior to seeding, the purity of the LSECs was confirmed by immunostaining with anti-VOA Willebrand factor (data not shown).
# For dexamethasone or other drug treatment, the cells were incubated with the drugs under various conditions as indicated in each figure legend (FIGS. 1A-F). […]
# (§2) The lysates were used for glucocerebrosidase assay in duplicate or triplicate with 4-MU-beta-glucoside (Sigma# M-3633) as substrate and with CEREZYME® enzyme as standard. Proteins were quantified using a MicroBCA protein assay kit (Pierce) with BSA as standard. […]
# [3] = system: Hep3B cells; assay: CEREZYME enzyme uptake by hepatocytes (Hep3B) in vitro; type: cell-based; details: dexamethasone treatment; result in words
# Experimental: as §1, with “shown). […]” for “shown).”
# as §2
# [4] = system: spleen and bone marrow tissues; assay: Glucocerebrosidase activity in rat spleen and bone marrow after CEREZYME enzyme injection; type: in vivo, Fisher rats; details: rats, 100 μg dexamethasone, 2.5 U CEREZYME; equals level of non-treated rats given 10 U
# Experimental: To assess the effect of dexamethasone treatment on CEREZYME® enzyme uptake by liver macrophage (Kupffer cells) in vivo, Fisher rats (female, ˜130 g) were divided into four groups (n=3). The first and second groups of rats only received vehicle PBS without dexamethasone, and the third and fourth groups were treated with water-soluble dexamethasone sodium phosphate (American Reagent Laboratories Inc.) at 10 μg and 100 μg (diluted into 200 μl PBS) per rat through intraperitoneal injection. Four doses of dexamethasone were given over two consecutive days, one dose in early morning and one dose in late afternoon on each day. On the third day, CEREZYME® enzyme at 2.5 U per rat (˜18 U/kg) diluted in PBS was administrated into the second, third and fourth groups of rats through tail vein bolus injection. The first group was used as negative control.
# Direct measurement of glucocerebrosidase activity in spleen, liver and bone marrow tissues after CEREZYME® enzyme uptake was also assessed in another set of experiments. Five groups of rats were used (n=3). The first four groups were treated in the same manner as described above, whereas the fifth group of rats was not treated with dexamethasone but received 10 U of CEREZYME® enzyme per rat and used as positive controls. […] The supernatants were saved and measured for glucocerebrosidase activity and normalized to protein content as described above.
# [5] = system: spleen macrophages; assay: CEREZYME enzyme uptake in vivo by isolated rat spleen macrophages; parameters: species or system Fisher rats
# Experimental: Quantitative analysis of the dexamethasone effects on CEREZYME® enzyme uptake in vivo was performed on macrophage cells isolated from spleens through the attachment method (Gessani S, 2000 #35). Fisher rats (female, 180-200 g) were used and divided into four groups. After dexamethasone (50 μg/rat) pretreatment and CEREZYME® enzyme (or unmodified glucocerebrosidase) injection, rat spleens were excised and cut into small pieces. The total spleen cells were released by pressing between two frosted cover slides, followed by washing with 15 ml of RPMI media containing 10% heat-inactivated FBS. Red blood cells were lysed with red blood cell lysis buffer (Sigma). The rest of the splenocytes were seeded in 150-mm tissue culture dishes and incubated at 37° C. for 1 hour for the attachment isolation of macrophages. 15 ml of media were added to five 150-mm tissue culture dishes as blanks for nonspecific protein binding. After removing the cells in suspension and washing the attached cells 5 times with PBS, the attached cells were lysed in KP buffer by scrapping and assayed for glucocerebrosidase activity and protein content. The average of protein content of the blank dishes was subtracted from each cell sample. For dose response of CEREZYME® enzyme to dexamethasone, rats pretreated with dexamethasone were injected with different doses of CEREZYME® enzyme as for the control groups without dexamethasone pretreatment. Attached cells (>90% spleen macrophages) were isolated for glucocerebrosidase assay as described above. […] The absolute enzyme activity, however, was ˜220% of the control without dexamethasone treatment (FIG. 4A). The dexamethasone effects were also tested at other CEREZYME® enzyme doses at 7 U/kg and 72 U/kg respectively, which are either below or above the saturation levels (Mistry, 1996 #10). As is shown in FIG. 4B, at both doses, the dexamethasone effects were about the same and increased CEREZYME® enzyme uptake to a similar level as with 18 U/kg of CEREZYME® enzyme, namely, about 3-fold increase after dosage correction. The absolute CEREZYME® enzyme activity was ˜250% of the control sample at 72 U/kg.
# [6] = system: asialoglycoprotein receptors (ASGPR); details: cited from earlier work
# [7] = system: muscle tissues; parameters: species or system normal mice (129 SV); details: mouse, in vivo, 6 mg/kg
# Experimental: (§3) To directly evaluate the effects of insulin/glucose on alpha-galactosidase uptake in vivo, normal (129 SV, 3-4 month, male) and Fabry mice (on 129SV background, 3-4 month, male) were used for uptake assays under different conditions.
# (§4) Normal mice were fasted overnight from 5 p.m. to 9 a.m. next morning, and then divided into three groups. […] The second group directly received alpha-galactosidase injection (6 mg/kg) through tail vein as bolus injection; the third group was first gavaged with 0.5 ml of 50% glucose followed by subcutaneous injection of insulin (0.25 U) on the upper back 10 minutes later, after another 45 minutes, alpha-galactosidase was injected as for the second group. Two hours after alpha-galactosidase injection, different tissues (heart, diaphragm, tongue, muscle gastrocnemius, muscle vastus laterus, muscle paraspinal) were collected and assayed for alpha-galactosidase activity after homogenization in alpha-galactosidase assay buffer plus 1% of triton and 1× protease inhibitor cocktail.
# [8] = system: muscle tissues; details: mouse, in vivo
# Experimental: as §3, §4
# Here, 4 groups of Fabry mice were used and similarly treated as for the normal mice. […]
# [9] = system: mannose receptor; details: cited from earlier work
molecule,measurement,setting,value
O=P(O)(O)OC[C@H]1OC(O)[C@@H](O)[C@@H](O)[C@@H]1O (stereo partly drawn) [M6P],inhibition of alpha-galactosidase uptake by myotubes,[1],entire alpha-galactosidase uptake can be inhibited
C[C@@H]1C[C@H]2[C@@H]3CCC4=CC(=O)C=C[C@]4(C)[C@@]3(F)[C@@H](O)C[C@]2(C)[C@@]1(O)C(=O)CO [dexamethasone],increase of CEREZYME enzyme uptake by rat alveolar macrophage cells,"[2]; after two days, separate experiment",250-350%
same,effect on CEREZYME enzyme uptake by hepatocytes,[3],did not significantly enhance
same,increase of total glucocerebrosidase activity in spleen,[4],4 fold
same,increase in CEREZYME enzyme uptake by spleen macrophages after dosage correction,[5]; CEREZYME 7 U/kg and 72 U/kg,about 3 fold
same,"absolute enzyme activity in spleen macrophages, % of control without dexamethasone",[5]; CEREZYME 18 U/kg,~220%
same,"absolute CEREZYME enzyme activity in spleen macrophages, % of control sample",[5]; CEREZYME 72 U/kg,~250%
same,increase in CEREZYME enzyme uptake by spleen macrophages after normalizing the dose contribution,"[5]; dexamethasone 50 μg/rat, CEREZYME 18 U/kg",at least 3 fold
Interferon alpha,inhibition of binding and uptake of asialoglycoproteins,[6]; after 3-6 hour treatment,50%
same,inhibition of binding and uptake of asialoglycoproteins,[6]; after 24 hour treatment,~100%
"alpha-galactosidase: recombinant human alpha-galactosidase, used as a model M6P-bearing lysosomal enzyme",alpha-galactosidase activity in muscle tissues after injection alone,[7],increased its activity in all the muscle tissues
same,alpha-galactosidase activity in tissues relative to wildtype tissues,[8],about similar levels
same,increase in alpha-galactosidase activity in heart over wildtype tissue,[8],more than 10 fold
prostaglandin E,enhancement of mannose receptor cell surface expression on macrophages,[9],4-6 fold
B1,effect on CEREZYME enzyme uptake by macrophage cells,[2]; result in words,did not enhance or inhibit
B2,inhibition of binding and uptake of asialoglycoproteins,[6]; after 3-6 hour treatment,50%
same,inhibition of binding and uptake of asialoglycoproteins,[6]; after 24 hour treatment,~100%
B3,enhancement of mannose receptor cell surface expression on macrophages,[9],10-15 fold
